The numbers were not newly measured in paper PMC6931083 (Journal of Pharmaceutical Analysis, 2019), which cites them from elsewhere.

The conditions of this data set: ref 6 (Hentz et al.).

For “mono-conjugated FITC-insulin (tagged at B1 position): literature (Hentz et al.) mono-conjugated FITC-insulin tagged at B1 position”, the “Biological activity compared to the native insulin” value was “same biological activity as the native insulin”.

Turning to “A1 conjugated FITC-insulin: literature (Hentz et al.) FITC-insulin conjugated at A1”, the “Decrease in biological activity as compared to the native insulin” value is given as 10%.

For the substance “di-conjugated FITC-insulin: di-conjugated FITC-insulin at B1 and A1 (literature value, Hentz et al.)”, the “Decrease in biological activity as compared to the native insulin” value is recorded as 100%.
